From patent US10487146B2, “Oxidized LDL as a biomarker for neurological complications of pregnancy” (The University of Vermont and State Agricultural College, priority 2012, dated 2019)
Entries after “also recorded” stand apart in the source; their conditions may differ.

Test system: cerebral vein of Galen from NonP rats
Assay: BBB permeability (hydraulic conductivity, Lp) in isolated cerebral veins perfused with human plasma
Design: species or system rat
Procedure: BBB permeability measurements. The first set of experiments was performed to determine the effects of circulating factors in plasma from EPE and LPE women on the BBB permeability compared to NP women and NonP women. We measured Lp, the critical transport parameter that relates water flux to hydrostatic pressure, in isolated cerebral veins from nonpregnant female rats after perfusing with plasma from the 4 groups of women, as described previously (52). This method of measuring BBB permeability was specifically developed to have a direct measure of water permeability and has been successfully used in several previous studies (13, 52-54).
The vein of Galen was used for all permeability experiments as representation of the BBB because this vein has BBB properties and is where BBB disruption occurs first during acute hypertension (55). […] After this incubation period with plasma, intravascular pressure was increased to 25±0.1 mmHg and the drop in pressure due to transvascular filtration of water out of the vessel in response to hydrostatic pressure was measured for 40 minutes. […] After flux was determined, transvascular filtration per surface area (Jv/S) and Lp were calculated by normalizing flux to the surface area and oncotic pressure of the plasma perfusate that was determined by a commercially available oncometer. […]

C[n+]1ccc(-c2c3nc(c(-c4cc[n+](C)cc4)c4ccc([n-]4)c(-c4cc[n+](C)cc4)c4nc(c(-c5cc[n+](C)cc5)c5ccc2[n-]5)C=C4)C=C3)cc1.[Cl-].[Cl-].[Cl-].[Cl-].[Cl-].[Fe+3] [FeTMPyP, Fe(III)tetrakis (1-methyl-4-pyridyl) porphyrin pentachlorideporphyrin pentachloride]
effect on BBB permeability (Lp at 36 minutes) induced by plasma from EPE women (EPE plasma plus 50 μM FeTMPyP): significantly inhibited BBB permeability; also recorded: inhibited the BBB permeability induced by plasma from EPE women | effect on BBB permeability (Lp) induced by exogenous oxLDL (NonP plasma plus 3.5 μg/ml oxLDL and 50 μM FeTMPyP): inhibited the BBB permeability induced by 3.5 μg/ml exogenous oxLDL
